How the values were obtained:
YES1 kinase = YES1 kinase (Homo sapiens, UniProt P07947); experiment: YES1 kinase inhibition, ADP Glo assay (Promega); type: biochemical; conditions: for inhibition at 0.01 µM: compound 10 nM, read-out: YES1 enzyme, % inhibition, 10 nM; for inhibition at 0.1 µM: compound 100 nM, read-out: YES1 enzyme, % inhibition, 100 nM; for IC50: class symbols, read-out: YES1 enzyme, IC50
How it was run: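 ADP-Glo luminescence after a 40 min room-temperature reaction of YES1 with ATP and substrate (buffer with MnCl2 and DTT; 10 min compound preincubation) was used as readout. Percent inhibition at 1, 10 and 100 nM compound was calculated relative to negative control after background subtraction, and IC50 values derived.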

[1] = tested on: KYSE-70 esophageal cancer cell line; experiment: Cell growth inhibition of KYSE-70 (Sulforhodamine B); type: cell-based; conditions: Homo sapiens; KYSE-70, 72 hours; read-out: KYSE70 GI50
How it was run: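 KYSE-70 cells (YES1-amplified) in RPMI-1640 with 10% FBS were seeded 24 h before treatment with compound at 0.0046–10 µM final. After 72 h, cells were TCA-fixed and stained with sulforhodamine B, with absorbance read at 510 nm. GI50 was derived with a time-zero plate set to 0% and the vehicle control to 100%, in duplicate tests.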

Sequence of YES1 kinase (P07947 whole entry): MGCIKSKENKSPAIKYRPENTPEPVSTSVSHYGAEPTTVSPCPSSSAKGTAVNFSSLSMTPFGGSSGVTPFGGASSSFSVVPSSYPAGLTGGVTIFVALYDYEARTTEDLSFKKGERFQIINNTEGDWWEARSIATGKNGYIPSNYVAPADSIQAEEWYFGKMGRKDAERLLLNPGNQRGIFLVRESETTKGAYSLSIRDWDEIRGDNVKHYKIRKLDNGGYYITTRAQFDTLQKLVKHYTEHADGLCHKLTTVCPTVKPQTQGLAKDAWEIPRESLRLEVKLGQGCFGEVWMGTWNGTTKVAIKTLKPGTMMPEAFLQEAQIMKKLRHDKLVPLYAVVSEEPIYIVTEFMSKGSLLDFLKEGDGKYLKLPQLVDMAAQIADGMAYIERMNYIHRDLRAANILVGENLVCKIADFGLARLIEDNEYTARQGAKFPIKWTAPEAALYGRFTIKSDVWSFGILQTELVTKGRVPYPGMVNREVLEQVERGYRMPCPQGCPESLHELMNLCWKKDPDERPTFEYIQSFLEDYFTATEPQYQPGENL

| SMILES | inhibition at 0.01 µM (YES1 kinase) | inhibition at 0.1 µM (YES1 kinase) | GI50 [1] | IC50 (YES1 kinase) |
| --- | --- | --- | --- | --- |
| COc1cc(-c2cc(N3CCC4C(CCN4C)C3)n3ncnc(N)c23)ccc1NC(=O)OC(C)(C)C (centres unmarked) [Example 26, tert-butyl (4-(4-amino-7-(1-methyloctahydro-5H-pyrrolo[3,2-c]pyridin-5-yl)pyrrolo[2,1-f][1,2,4]triazin-5-yl)-2-methoxyphenyl)carbamate] | 30% | 69% | 1000 to 10000 nM |  |
| COc1cc(-c2cc(N3CCC4(CC3)CC(=O)N(C)C4)n3ncnc(N)c23)ccc1NC(=O)OC(C)(C)C [Example 27, tert-butyl (4-(4-amino-7-(2-methyl-3-oxo-2,8-diazaspiro[4.5]decan-8-yl)pyrrolo[2,1-f][1,2,4]triazin-5-yl)-2-methoxyphenyl)carbamate] | 59% | 74% | 1000 to 10000 nM |  |
| COc1cc(-c2cc(N3CCN(CCN(C)C)CC3)n3ncnc(N)c23)ccc1NC(=O)OC(C)(C)C [Example 28, tert-butyl (4-(4-amino-7-(4-(2-(dimethylamino)ethyl)piperazin-1-yl)pyrrolo[2,1-f][1,2,4]triazin-5-yl)-2-methoxyphenyl)carbamate] | 41% | 85% | 1000 to 10000 nM |  |
| COCCN1CCN(c2cc(-c3ccc(NC(=O)OC(C)(C)C)c(OC)c3)c3c(N)ncnn23)CC1 [Example 29, tert-butyl (4-(4-amino-7-(4-(2-methoxyethyl)piperazin-1-yl)pyrrolo[2,1-f][1,2,4]triazin-5-yl)-2-methoxyphenyl)carbamate] | 28% | 47% | > 10000 nM |  |
| COc1cc(-c2cc(N3CC[C@@H](N(C)C)[C@@H](F)C3)n3ncnc(N)c23)ccc1NC(=O)OC(C)(C)C [Example 30, tert-butyl (4-(4-amino-7-((3S,4R)-4-(dimethylamino)-3-fluoropiperidin-1-yl)pyrrolo[2,1-f][1,2,4]triazin-5-yl)-2-methoxyphenyl)carbamate] | 73% | 94% | ≤ 100 nM |  |
| COc1cc(-c2cc(N3CCC4(CCN(C)CC4)C3)n3ncnc(N)c23)ccc1NC(=O)OC(C)(C)C [Example 36, tert-butyl (4-(4-amino-7-(8-methyl-2,8-diazaspiro[4.5]decan-2-yl)pyrrolo[2,1-f][1,2,4]triazin-5-yl)-2-methoxyphenyl)carbamate] | 36% | 78% | 100 to 1000 nM |  |
| COc1cc(-c2cc(N3CCC4(CN(C)C4)C3)n3ncnc(N)c23)ccc1NC(=O)OC(C)(C)C [Example 37, tert-butyl (4-(4-amino-7-(2-methyl-2,6-diazaspiro[3.4]octan-6-yl)pyrrolo[2,1-f][1,2,4]triazin-5-yl)-2-methoxyphenyl)carbamate] | 24% | 69% | 100 to 1000 nM |  |
| COc1cc(-c2cc(N3CC4(CCN(C)CC4)C3)n3ncnc(N)c23)ccc1NC(=O)OC(C)(C)C [Example 38, tert-butyl (4-(4-amino-7-(7-methyl-2,7-diazaspiro[3.5]nonan-2-yl)pyrrolo[2,1-f][1,2,4]triazin-5-yl)-2-methoxyphenyl)carbamate] | 44% | 80% | ≤ 100 nM |  |
| COc1cc(-c2cc(N3CC4(CCN(C)C4)C3)n3ncnc(N)c23)ccc1NC(=O)OC(C)(C)C [Example 39, tert-butyl (4-(4-amino-7-(6-methyl-2,6-diazaspiro[3.4]octan-2-yl)pyrrolo[2,1-f][1,2,4]triazin-5-yl)-2-methoxyphenyl)carbamate] | 57% | 89% | ≤ 100 nM |  |
| COc1cc(-c2cc(N3CCC[C@@H](CN(C)C)C3)n3ncnc(N)c23)ccc1NC(=O)OC(C)(C)C [Example 40, tert-butyl (S)-(4-(4-amino-7-(3-((dimethylamino)methyl)piperidin-1-yl)pyrrolo[2,1-f][1,2,4]triazin-5-yl)-2-methoxyphenyl)carbamate] | 5% | 43% | 1000 to 10000 nM |  |
| COc1cc(-c2cc(N3C[C@@H]4[C@H](C3)[C@H]4N(C)C)n3ncnc(N)c23)ccc1NC(=O)OC(C)(C)C [Example 42, tert-butyl (4-(4-amino-7-((1R,5S,6s)-6-(dimethylamino)-3-azabicyclo[3.1.0]hexan-3-yl)pyrrolo[2,1-f][1,2,4]triazin-5-yl)-2-methoxyphenyl)carbamate] | 63% | 90% | ≤ 100 nM |  |
| CNC1CCN(c2cc(-c3ccc(NC(=O)OC(C)(C)C)c(OC)c3)c3c(N)ncnn23)CC1 [Example 44, tert-butyl (4-(4-amino-7-(4-(methylamino)piperidin-1-yl)pyrrolo[2,1-f][1,2,4]triazin-5-yl)-2-methoxyphenyl)carbamate] | 80% | 96% | ≤ 100 nM | ≤ 100 nM |
| COc1cc(-c2cc(N3CCC(C)(N)CC3)n3ncnc(N)c23)ccc1NC(=O)OC(C)(C)C [Example 45, tert-butyl (4-(4-amino-7-(4-amino-4-methylpiperidin-1-yl)pyrrolo[2,1-f][1,2,4]triazin-5-yl)-2-methoxyphenyl)carbamate] | 80% | 92% | ≤ 100 nM | ≤ 100 nM |
| COc1cc(-c2cc(N3CC[C@@H](N)[C@@H](F)C3)n3ncnc(N)c23)ccc1NC(=O)OC(C)(C)C [Example 46, tert-butyl (4-(4-amino-7-((3S,4R)-4-amino-3-fluoropiperidin-1-yl)pyrrolo[2,1-f][1,2,4]triazin-5-yl)-2-methoxyphenyl)carbamate] | 52% | 77% | 100 to 1000 nM |  |
| COc1cc(-c2cc(N3CCC(N)C(C)C3)n3ncnc(N)c23)ccc1NC(=O)OC(C)(C)C (centres unmarked) [Example 48, tert-butyl (4-(4-amino-7-(4-amino-3-methylpiperidin-1-yl)pyrrolo[2,1-f][1,2,4]triazin-5-yl)-2-methoxyphenyl)carbamate] | 70% | 96% | ≤ 100 nM |  |
| COc1cc(-c2cc(N3CC4CC3CC4N)n3ncnc(N)c23)ccc1NC(=O)OC(C)(C)C (centres unmarked) [Example 51, tert-butyl (4-(4-amino-7-(5-amino-2-azabicyclo[2.2.1]heptan-2-yl)pyrrolo[2,1-f][1,2,4]triazin-5-yl)-2-methoxyphenyl)carbamate] | 70% | 90% | 100 to 1000 nM |  |
| COc1cc(-c2cc(N3CCC4(CC3)CNC(=O)C4)n3ncnc(N)c23)ccc1NC(=O)OC(C)(C)C [Example 52, tert-butyl (4-(4-amino-7-(3-oxo-2,8-diazaspiro[4.5]decan-8-yl)pyrrolo[2,1-f][1,2,4]triazin-5-yl)-2-methoxyphenyl)carbamate] | 60% | 90% | 100 to 1000 nM | ≤ 100 nM |
| COc1cc(-c2cc(N3CCC4(CCNC4=O)CC3)n3ncnc(N)c23)ccc1NC(=O)OC(C)(C)C [Example 53, tert-butyl (4-(4-amino-7-(1-oxo-2,8-diazaspiro[4.5]decan-8-yl)pyrrolo[2,1-f][1,2,4]triazin-5-yl)-2-methoxyphenyl)carbamate] | 29% | 60% | ≤ 100 nM |  |
| COc1cc(-c2cc(N3CCC4(CCC(=O)N4)CC3)n3ncnc(N)c23)ccc1NC(=O)OC(C)(C)C [Example 54, tert-butyl (4-(4-amino-7-(2-oxo-1,8-diazaspiro[4.5]decan-8-yl)pyrrolo[2,1-f][1,2,4]triazin-5-yl)-2-methoxyphenyl)carbamate] | 20% | 60% | ≤ 100 nM | ≤ 100 nM |
| COc1cc(-c2cc(N3CCC4(CC3)CNC4=O)n3ncnc(N)c23)ccc1NC(=O)OC(C)(C)C [Example 55, tert-butyl (4-(4-amino-7-(1-oxo-2,7-diazaspiro[3.5]nonan-7-yl)pyrrolo[2,1-f][1,2,4]triazin-5-yl)-2-methoxyphenyl)carbamate] | 40% | 76% | ≤ 100 nM |  |
| COc1cc(-c2cc(N3CCC4(CC3)CC(=O)N4)n3ncnc(N)c23)ccc1NC(=O)OC(C)(C)C [Example 56, tert-butyl (4-(4-amino-7-(2-oxo-1,7-diazaspiro[3.5]nonan-7-yl)pyrrolo[2,1-f][1,2,4]triazin-5-yl)-2-methoxyphenyl)carbamate] | 23% | 68% | ≤ 100 nM | ≤ 100 nM |
| COc1cc(-c2cc(N3CCC(CN)CC3)n3ncnc(N)c23)ccc1NC(=O)OC(C)(C)C [Example 59, tert-butyl (4-(4-amino-7-(4-(aminomethyl)piperidin-1-yl)pyrrolo[2,1-f][1,2,4]triazin-5-yl)-2-methoxyphenyl)carbamate] | 56% | 80% | 100 to 1000 nM | ≤ 100 nM |
| COc1cc(-c2cc(N3CCC(N)CC3)n3ncnc(N)c23)ccc1NC(=O)OC(C)(C)CF [Example 65, 1-fluoro-2-methylpropan-2-yl (4-(4-amino-7-(4-aminopiperidin-1-yl)pyrrolo[2,1-f][1,2,4]triazin-5-yl)-2-methoxyphenyl)carbamate] |  |  | 100 to 1000 nM | ≤ 100 nM |

From patent US20260297095A1, “NOVEL PYRROLOTRIAZINE DERIVATIVE AND USE THEREOF” (Pelemed Co., Ltd., priority 2024, published 2026)
